Test results published in ChEMBL document CHEMBL5096183, “Contemporary advances of cyclic molecules proposed for inflammation” (Eur J Med Chem, 2021).
pIC50: −log10 of the molar value.

Legend:
[1] = test system: Rattus norvegicus; test: Anti-inflammatory activity against formalin-induced foot paw edema in Wistar rat assessed as oedema inhibition at 10 mg/kg,po measured for 1 to 3 hrs by plethysmometric analysis relative to control; format: functional; settings: time 1-3 hrs
[2] = test system: Mus musculus; test: Analgesic activity in hot plate induced thermal pain Swiss albino mouse model assessed as change in latency at 10 mg/kg, po measured at 1 to 2 hrs relative to control; format: functional; settings: time 1-2 hrs
[3] = biological target: T1, Prostaglandin G/H synthase 2 (Homo sapiens, UniProt P35354); test: Inhibition of human recombinant COX-2
T1 sequence (P35354 whole entry): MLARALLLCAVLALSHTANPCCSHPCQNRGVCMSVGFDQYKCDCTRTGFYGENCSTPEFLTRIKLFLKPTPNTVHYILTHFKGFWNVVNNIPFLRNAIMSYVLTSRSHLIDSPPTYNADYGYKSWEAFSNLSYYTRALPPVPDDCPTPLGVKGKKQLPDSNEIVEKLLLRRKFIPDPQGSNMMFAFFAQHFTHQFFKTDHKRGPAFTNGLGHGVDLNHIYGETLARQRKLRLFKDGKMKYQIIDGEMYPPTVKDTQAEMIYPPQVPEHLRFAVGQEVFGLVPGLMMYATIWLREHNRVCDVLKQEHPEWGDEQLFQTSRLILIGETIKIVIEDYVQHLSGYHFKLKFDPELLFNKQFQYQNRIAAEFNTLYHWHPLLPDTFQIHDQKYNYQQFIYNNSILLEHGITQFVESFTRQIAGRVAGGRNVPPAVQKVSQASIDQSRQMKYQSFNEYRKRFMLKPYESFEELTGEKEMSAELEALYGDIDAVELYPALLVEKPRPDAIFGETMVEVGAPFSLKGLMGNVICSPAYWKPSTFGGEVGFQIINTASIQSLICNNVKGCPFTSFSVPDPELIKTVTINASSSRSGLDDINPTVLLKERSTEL

[4] = test system: Rattus norvegicus; test: Anti-inflammatory activity against carrageenan-induced paw edema in PO dosed Wistar albino rat measured after 2 hrs; format: functional
[5] = test system: Mus musculus; test: Anti-inflammatory activity against Carrageenan-induced paw edema in Swiss albino mouse assessed as change in paw volume at 10 mg/kg, PO measured for 3 to 6 hrs by plethysmometric analysis relative to control; format: functional; settings: time 3-6 hrs
[6] = test system: Rattus norvegicus; test: Anti-inflammatory activity against carrageenan-induced paw edema in rat
[7] = test system: Rattus norvegicus; test: Anti-inflammatory activity against carrageenan-induced paw edema in rat relative to control; format: functional
[8] = biological target: T2, Prostaglandin G/H synthase 1 (Ovis aries, UniProt P05979); test: Inhibition of ovine COX-1 preincubated for 10 mins followed by arachidonic acid addition for 2 mins
T2 sequence (P05979 whole entry): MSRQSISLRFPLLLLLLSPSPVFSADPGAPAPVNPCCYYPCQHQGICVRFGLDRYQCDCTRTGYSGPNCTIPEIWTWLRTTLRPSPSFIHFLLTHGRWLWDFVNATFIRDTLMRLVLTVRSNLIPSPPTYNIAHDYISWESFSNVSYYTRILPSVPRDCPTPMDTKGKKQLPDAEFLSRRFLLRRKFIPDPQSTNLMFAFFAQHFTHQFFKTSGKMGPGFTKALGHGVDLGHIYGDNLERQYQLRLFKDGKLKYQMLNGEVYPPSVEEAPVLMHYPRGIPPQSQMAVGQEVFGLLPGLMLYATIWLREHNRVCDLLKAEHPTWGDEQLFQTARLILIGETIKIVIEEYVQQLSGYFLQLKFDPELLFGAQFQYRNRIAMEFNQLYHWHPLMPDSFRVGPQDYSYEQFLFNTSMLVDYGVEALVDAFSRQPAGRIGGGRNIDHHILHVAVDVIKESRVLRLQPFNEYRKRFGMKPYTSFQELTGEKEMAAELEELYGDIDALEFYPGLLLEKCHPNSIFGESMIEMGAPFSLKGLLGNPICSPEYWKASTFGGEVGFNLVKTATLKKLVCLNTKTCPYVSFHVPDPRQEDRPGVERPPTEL

## COc1ccc(/C=C/C(=O)c2cccc(N3C(=O)c4ccccc4C3=O)c2)cc1OC
[1]
  inhibition in vivo at 10 mg/kg: 45%
[2]
  inhibition in vivo at 10 mg/kg: 45.8%

## COc1ccc(/C=C/C(=O)c2cc(-n3cc(CN4C(=O)C(=O)c5ccccc54)nn3)ccc2O)cc1
[3]
  pIC50: 7.43

## Cc1ccc(-c2cc(C(F)(F)F)nn2-c2ccc(S(N)(=O)=O)cc2)cc1 [CELECOXIB]
[4]
  ED50: 32 µmol/kg
[5]
  Activity: 32%
[6]
  ED50: 34.1 mg/kg
[7]
  Activity: 83.4%

## CC1=NN(c2cccc(Cl)c2)C(=O)/C1=C\c1cn(-c2nc(N3CCOCC3)nc(N3CCOCC3)n2)c2ccccc12
[8]
  pIC50: 4.70
